The structures appear in SMILES notation.

Test [1] deals with T1, human STING protein in THP1-Blue ISG cells (Homo sapiens, UniProt Q86WV6, G230A/H232R/R293Q/R71H).
T1 construct: endogenous STING levels form the parental, unmodified THP1-Blue ISG cell lines; endogenous in cells; host or cells: THP1-Blue ISG cells
As to the kind of experiment: In vitro cytokine induction, THP1-Blue ISG reporter cell assay (IRF-inducible SEAP). In kind it is cell-based. The conditions noted are these: 24 hours incubation, SEAP OD at 620 nm. The source says:
Activation of the STING protein expressed in THP1 cells results in an increase of interferon production. By the stable integration of an interferon regulatory factor (IRF)-inducible SEAP (secreted embryonic alkaline phosphatase) reporter construct the functional interferon signaling pathway can be monitored. Using Invivogen's QUANTI-Blue™ colorimetric enzyme assay and a suitable optical density (OD) reader the activity of SEAP can be detected and quantified. This technique could be used to characterize pharmacological modification of the STING protein.
Measurements of SEAP activity were performed in THP1-Blue ISG cells stably expressing the human STING protein and the IRF-inducible SEAP reporter construct. Cells were cultivated for expansion in RPMI1640 medium with 10% fetal calf serum, 50 μg/ml Penicillin-Streptomycin, 100 μg/ml Zeocin, and 100 μg/ml Normocin in a 37°, 95% humidity and 5% CO2 incubator. Assay-ready cells were stored as frozen stocks.
In preparation for the assay, the cells were thawed in Zeocin-/Normocin-free medium and were distributed into the assay plates with a density of 15000 cells/15 μL per well. […]
At the day of the assay, 75 μl per well of Quanti-Blue reagent was added to all wells of the plate and the plate was incubated another 30 minutes at 37° C. The OD at 620 nm was measured on the EnVision reader (PerkinElmer). […]

Test [2] has as its target Human STING (hSTING, residues 155-341, wild-type sequence) (Homo sapiens, UniProt Q86WV6, H232R). As to the kind of experiment: hSTING binding by differential scanning fluorimetry (DSF). The conditions noted are these: 100 μM test compound, 3 μM target protein, at least two Tm measurements averaged. On the procedure:
3) 2 μl of this protein-dye-mixture (25×SYPRO Orange and 15 μM Protein) was added to 8 μl compound solution. Final volume was 10 μL. 4) Certain well positions were used as negative control. 5) The plates were prepared for duplicate measurement and centrifuged for 2 min at 1000 g. 6) In the measurement, 160 cycles of 0.5° C. were used (temperature ramp 15 s/cycle, 15° C. to 95° C.). Data analysis: The dissociation curves were processed in Bio-Rad CFX Manager. Peak type was set to “negative. At least two Tm measurements were averaged.
(DSF heats the sample and reads unfolding from a dye or from intrinsic fluorescence.)

The target in test [3] is T2, hSTING AQ (Homo sapiens, UniProt Q86WV6, G230A/H232R/R293Q).
T2 construct: expressed in transfected cells; host or cells: THP1-Blue ISG hSTING KO clone, retroviral MSCV-ires-GFP-Blasti
T2 sequence (Q86WV6 whole entry G230A/H232R/R293Q): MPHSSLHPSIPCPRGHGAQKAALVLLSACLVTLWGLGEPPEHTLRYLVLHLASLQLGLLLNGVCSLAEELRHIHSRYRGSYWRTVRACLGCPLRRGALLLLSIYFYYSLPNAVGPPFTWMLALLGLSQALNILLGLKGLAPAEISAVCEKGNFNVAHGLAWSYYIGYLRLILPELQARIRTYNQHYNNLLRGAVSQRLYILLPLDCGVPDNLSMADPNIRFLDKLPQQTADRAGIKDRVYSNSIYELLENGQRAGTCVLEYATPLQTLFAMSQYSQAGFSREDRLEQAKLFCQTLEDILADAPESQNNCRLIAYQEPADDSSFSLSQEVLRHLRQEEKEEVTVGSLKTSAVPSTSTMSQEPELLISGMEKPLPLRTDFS
In words: THP1-Blue ISG hSTING KO reporter cells re-expressing hSTING AQ. In kind it is cell-based. Particulars: AQ variant cell line. From the text: (§1) Several single nucleotide polymorphisms have been identified in the human STING gene that may affect the response to cyclic dinucleotides. To determine the activity of compounds of the invention, THP1-Blue ISG reporter cell lines expressing the different human STING variants have been generated. To do so, the endogenous human STING was first deleted using the CRISPR/CAS9 system: THP1-Blue ISG cells were electroporated with ALL-IN-ONE CRISPR plasmids targeting the STING gene (purchased from Sigma encoding the gRNA and GFP as a reporter gene for successful transduction). GFP positive cells then were sorted 24 h post transfection and expanded. Cells were then dispersed in semisolid methocel medium to allow single cell clone isolations. Clones were then screened for cGAMP responsiveness using the Quanti-blue reporter assay. Non-responsive clones were subsequently analysed for STING loss by western blotting and sequencing of the STING locus.
(§2) For the overexpression of the human STING variants, a confirmed THP1-Blue ISG hSTING KO clone was transduced with individual retroviral plasmids (MSCV-ires-GFP-Blasti) encoding the allelic variants of hSTING (WT, HAQ, R232H, AQ and R293Q), respectively. Transduced cells were sorted for different levels of GFP fluorescence and STING allele expression was analysed by western blot.

Test [4] has as its target T3, hSTING R232H (Homo sapiens, UniProt Q86WV6).
T3 construct: expressed in transfected cells; host or cells: THP1-Blue ISG hSTING KO clone, retroviral MSCV-ires-GFP-Blasti
In words: THP1-Blue ISG hSTING KO reporter cells re-expressing hSTING R232H. The test is classed as cell-based. The conditions noted are these: R232H variant cell line.
Source text: as §1, §2

In test [5] the target is T4, hSTING WT (Homo sapiens, UniProt Q86WV6, H232R).
T4 construct: expressed in transfected cells; host or cells: THP1-Blue ISG hSTING KO clone, retroviral MSCV-ires-GFP-Blasti
T4 sequence (Q86WV6 whole entry H232R): as the sequence (Q86WV6 whole entry G230A/H232R/R293Q) above, with A230G, Q293R counted along it
In words: THP1-Blue ISG hSTING KO reporter cells re-expressing hSTING WT. The test is classed as cell-based. Particulars: WT variant cell line.
Source text: as §1, §2

Test [6] addresses T5, hSTING HAQ (Homo sapiens, UniProt Q86WV6, G230A/H232R/R293Q/R71H).
T5 construct: expressed in transfected cells; host or cells: THP1-Blue ISG hSTING KO clone, retroviral MSCV-ires-GFP-Blasti
In words: THP1-Blue ISG hSTING KO reporter cells re-expressing hSTING HAQ. The test is classed as cell-based. Particulars: HAQ variant cell line.
Source text: as §1, §2

Test [7] addresses T6, hSTING R293Q (Homo sapiens, UniProt Q86WV6, H232R/R293Q).
T6 construct: expressed in transfected cells; host or cells: THP1-Blue ISG hSTING KO clone, retroviral MSCV-ires-GFP-Blasti
As to the kind of experiment: THP1-Blue ISG hSTING KO reporter cells re-expressing hSTING R293Q. The conditions noted are these: R293Q variant cell line. In kind it is cell-based.
Source text: as §1, §2

T1 sequence (Q86WV6 whole entry R71H/G230A/H232R/R293Q): as the sequence (Q86WV6 whole entry G230A/H232R/R293Q) above, with R71H counted along it
Sequence of Human STING (hSTING, residues 155-341, wild-type sequence) (Q86WV6 155-341 H232R limits assumed): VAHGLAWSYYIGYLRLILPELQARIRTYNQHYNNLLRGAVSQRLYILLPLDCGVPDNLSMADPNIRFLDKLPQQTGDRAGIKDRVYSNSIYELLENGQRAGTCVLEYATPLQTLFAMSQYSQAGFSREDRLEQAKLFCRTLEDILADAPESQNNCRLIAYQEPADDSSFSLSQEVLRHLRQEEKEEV
T5 sequence (Q86WV6 whole entry R71H/G230A/H232R/R293Q): as the sequence (Q86WV6 whole entry G230A/H232R/R293Q) above, with R71H counted along it
T3 sequence (Q86WV6 whole entry, stated change not applied): as the sequence (Q86WV6 whole entry G230A/H232R/R293Q) above, with A230G, R232H, Q293R counted along it
T6 sequence (Q86WV6 whole entry H232R/R293Q): as the sequence (Q86WV6 whole entry G230A/H232R/R293Q) above, with A230G counted along it

As for `Nc1ncnc2c1ncn2[C@@H]1O[C@]23CO[C@@H]1[C@@H]2OP(=O)(S)OC[C@H]1O[C@@H](n2cnc4cncnc42)[C@H](F)[C@@H]1OP(=O)(S)OC3` (single isomer, unassigned) [Example 1.2, Cyclic (2′-F-2′-deoxynebularine-(3′→5′)-phosphorothioate-LNA-adenosine-(3′→5′)-phosphorothioate)], the midpoint of the response in test [1], the EC50, lay at 0.16 µM. For the same molecule, in test [2], the “hSTING Tm shift” value is 19.8 °C.

As for `Nc1ncnc2c1ncn2[C@@H]1O[C@]23CO[C@@H]1[C@@H]2OP(=O)(S)OC[C@H]1O[C@@H](n2cnc4cncnc42)[C@H](F)[C@@H]1OP(=O)(S)OC3` (single isomer, unassigned) [Example 1.1, Cyclic (2′-F-2′-deoxynebularine-(3′→5′)-phosphorothioate-LNA-adenosine-(3′→5′)-phosphorothioate)], the concentration for a half-maximal effect (EC50) – broadly, the midpoint of the concentration-response curve – in test [3] was at most 1 µM; in test [1] it was 0.25 µM; in test [4] it was at most 1 µM; in test [5], at most 1 µM; in test [6] it was at most 1 µM; in test [7], at most 1 µM. Besides, the ΔTm at 100 µM in test [2] (read-out: hSTING Tm shift) was found to be 28.8 °C.

These data come from US20210024567A1, “MODIFIED CYCLIC DINUCLEOTIDE COMPOUNDS” (BOEHRINGER INGELHEIM INTERNATIONAL GMBH, priority 2018, published 2021).
